The values that follow come from patent publication US7534780B2, “Estradiol prodrugs” (Bayer Schering Pharma Aktiengesellschaft, priority 2004, dated 2009).

One data set deals with angiotensinogen. The data set can be described thus: Liver estrogeneity (marker angiotensinogen) in ovariectomized rats. The data set is classed as in vivo, rat. The note with it: oral administration. The protocol:
(§1) Adult Wistar rats were ovariectomized 14 days after this operation for the study of the substances according to the invention. A treatment extended over 3 days (days 1-3); on day 4 after the animals were sacrificed, the recovery of plasma for hormone-analytical and clinical-chemical determinations and the determination of uterus weights were carried out. In satellite tests, correspondingly conditioned animals were sacrificed and samples were taken of their blood after one-time treatment and at other times (see Table 1 for determining estradiol and estrone in the plasma).

For data set [1], the system named is erythrocytes. As to the kind of experiment: Determination of the erythrocyte/plasma ratio of the substance. The data set is classed as in vitro ADME. The note with it: fresh blood; tracer use for compound 1 or 9, otherwise non-radioactive. The protocol: Determination of the substance concentration in the erythrocyte/plasma ratio (tracer use):
Fresh blood is incubated with a defined amount of tracer compound of compound 1 or 9. After the erythrocytes are separated, the measured radioactivity in the erythrocytes is put into a ratio with the measured radioactivity in the plasma.
Determination of the erythrocyte/plasma ratio (non-radioactive):
Freshly-obtained, heparinized blood is mixed with a defined amount of test substance. The concentration in the plasma obtained therefrom is measured. The erythrocyte/plasma ratio is calculated from the measured concentration of the total substance in the plasma and the concentration that is used.

Data set [2] concerns erythrocytes. The data set can be described thus: Displacement of estradiol-3-sulfamate from the erythrocyte bond (relative binding affinity). Also noted: species or system human. Particulars: for RBA to Erythrocytes: human blood, displacement of 14C-labeled estradiol sulfamate; for bond to erythrocytes (in words): m-substituted versus p-substituted compounds. The protocol: The SO2—NTH2 group of the substances according to the invention can result in a concentration in erythrocytes by binding to carboanhydrases. The displacement of estradiol-3-sulfamate from the erythrocyte bond by test substances is measured.
Test preparation: Human blood is mixed with a mixture that consists of ^14C-labeled and unlabeled estradiol sulfamate. The erythrocytes are saturated at the selected working point, and the distribution in plasma/erythrocytes is 40:60. A second blood sample is mixed with a mixture that consists of ^14C-labeled estradiol sulfamate and unlabeled test substance. The relative binding affinity is calculated from the proportion of ^14C-labeled estradiol sulfamate in plasma: higher proportion=strong displacement of ^14C-estradiol sulfamate from the erythrocytes by the test substance=high binding affinity of the test substances to the erythrocytes.

The target of a further data set is Human Carboanhydrase I (Homo sapiens, UniProt P00915). The data set can be described thus: Inhibition of carboanhydrase I (CO2 hydration). The class given is biochemical. Particulars: read-out: CAI IC50.
Sequence of Human Carboanhydrase I (P00915 whole entry): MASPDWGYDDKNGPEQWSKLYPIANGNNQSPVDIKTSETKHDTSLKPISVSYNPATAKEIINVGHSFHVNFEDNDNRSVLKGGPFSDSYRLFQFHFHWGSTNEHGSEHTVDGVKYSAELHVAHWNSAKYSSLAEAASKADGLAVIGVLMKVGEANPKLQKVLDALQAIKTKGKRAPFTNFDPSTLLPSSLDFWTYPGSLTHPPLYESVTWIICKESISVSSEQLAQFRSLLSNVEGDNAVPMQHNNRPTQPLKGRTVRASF
The test system of a further data set is ovariectomized rats. As to the kind of experiment: Induction of uterus growth in ovariectomized rats, oral treatment days 1-3. The data set is classed as in vivo, rat. The note with it: oral administration. The protocol: as §1
In FIG. 1, the induction of uterus growth in ovariectomized rats is depicted. The treatment is carried out orally from day 1 to the 3rd day, and then the autopsy is carried out on the 4th day. A maximum uterus growth predominantly at 30 μg/animal/day is shown.

Data set [3] in a line: Estradiol (E2) and estrone (E1) levels in plasma of rats after one-time oral administration. The data set is classed as in vivo, rat. As to the method: as §1

Experimental for Human Carboanhydrase I: Test preparation: A constant CO2 stream is directed by a buffer that was mixed with carboanhydrase I. The time that is required to reduce the pH within defined limits is a measuring parameter. This parameter reflects the formation of H2CO3 in the medium. IC50 inhibiting values are determined by test substances being pipetted into the test preparation.

Consider `C#C[C@]1(O)CC[C@H]2[C@@H]3CCc4cc(O)ccc4[C@H]3CC[C@@]21C` [ethinyl estradiol, 17α-ethinyl estradiol, reference compound], for which, in the data set on angiotensinogen, the “hepatic estrogenic action, marker angiotensinogen (in words)” value is given as “significant increase in angiotensinogen”.

For the compound `C[C@]12CC[C@@H]3c4ccc(OS(N)(=O)=O)cc4CC[C@H]3[C@@H]1CC[C@@H]2O` [Estradiol-3-sulfamate, reference compound], the “Distribution Ratio of the Substance to Erythrocytes/Plasma” value in the data set on erythrocytes [1] stood at 49. In the data set on erythrocytes [2], the “RBA to Erythrocytes” value is listed as 100. Moreover, the IC50 at Human Carboanhydrase I came out at 157 ± 10.6 nM.

As to `C[C@]12CC[C@@H]3c4ccc(O)cc4CC[C@H]3[C@@H]1CC[C@@H]2OC(=O)c1cccc(S(N)(=O)=O)c1` [Compound 9, 3-Hydroxyestra-1,3,5(10)-trien-17β-yl 3′-sulfamoylbenzoate], the “Distribution Ratio of the Substance to Erythrocytes/Plasma” value with erythrocytes [1] is recorded as 4. Also, the “estrogenic activity in the uterus / uterus growth (in words)” value in the data set on ovariectomized rats is listed as “enhanced in comparison to estradiol”. In the data set on erythrocytes [2], the “RBA to Erythrocytes” value is on record as 0.18 and the “bond to erythrocytes (in words)” value is on record as “weaker bonds”. Moreover, in data set [3], the “oral availability and estrogeneity compared with the p-substituted compound (in words)” value is “higher oral availability and estrogeneity”. Further, the “increase of mother estrogen (estradiol) on oral administration (in words)” value in data set [3] (rats) is “very strong increase”. On Human Carboanhydrase I, the IC50 was determined as 380 nM.

Take `C[C@]12CC[C@@H]3c4ccc(O)cc4CC[C@H]3[C@@H]1CC[C@@H]2OC(=O)c1ccc(S(N)(=O)=O)cc1` [Compound 1, 3-Hydroxyestra-1,3,5(10)-trien-17β-yl 4′-sulfamoylbenzoate]: the “Distribution Ratio of the Substance to Erythrocytes/Plasma” value in the data set on erythrocytes [1] stood at 7.7. For the same compound, the “hepatic estrogenic action, marker angiotensinogen (in words)” value with angiotensinogen is “much lesser action on estrogen-modulated liver functions”. For the same compound, the “estrogenic activity in the uterus / uterus growth (in words)” value in the data set on ovariectomized rats is “superior action on the uterus growth”. In the data set on erythrocytes [2], the “RBA to Erythrocytes” value was 32 and the “bond to erythrocytes (in words)” value is listed as “very strong bond”. For the same compound, the IC50 at Human Carboanhydrase I was 190 nM.

For `C[C@]12CC[C@@H]3c4ccc(O)cc4CC[C@H]3[C@@H]1CC[C@@H]2OC(=O)c1cc(S(N)(=O)=O)c(Cl)cc1Cl` [Compound 7, 3-Hydroxyestra-1,3,5(10)-trien-17β-yl 2′,4′-dichloro-5′-sulfamoylbenzoate], in the data set on erythrocytes [1], the “Distribution Ratio of the Substance to Erythrocytes/Plasma” value is recorded as 5. For the same compound, in the data set on erythrocytes [2], the “RBA to Erythrocytes” value is 0.40 and the “bond to erythrocytes (in words)” value is reported as “weaker bonds”. Moreover, the IC50 at Human Carboanhydrase I is 500 nM.

What is called IC50 is the point on the concentration scale where inhibition reaches its midpoint.
